# Laboratory results published in PMC3961306, “Comparison of the Cancer Gene Targeting and Biochemical Selectivities of All Targeted Kinase Inhibitors Approved for Clinical Use” (PLoS ONE, 2014).
# Read-outs that look alike come from different tables or passages of the source.
# System: forty-four human cancer cell lines
# Assay: Cell proliferation assay (ATPlite, 72 hours) in the 44 cell line Oncolines panel
# Format: cell-based
# Settings: Homo sapiens
# [1] = 769-P, cell line 769-P, read-out: cell panel IC50, 769-P
# [2] = 786-0, cell line 786-0, read-out: cell panel IC50, 786-0
# [3] = A 172, read-out: cell panel IC50, A-172, cell line A-172
# [4] = A204, cell line A-204, read-out: cell panel IC50, A-204
# [5] = A498, read-out: cell panel IC50, A-498, cell line A-498
# [6] = A549, read-out: cell panel IC50, A-549, cell line A-549
# [7] = A-375, cell line A375, read-out: cell panel IC50, A375
# [8] = A-427, read-out: cell panel IC50, A-427, cell line A-427
# [9] = ACHN, cell line ACHN, read-out: cell panel IC50, ACHN
# [10] = AN3-CA, cell line AN3 CA, read-out: cell panel IC50, AN3 CA
# [11] = AU565, read-out: cell panel IC50, AU-565, cell line AU-565
# [12] = BT-20, cell line BT-20, read-out: cell panel IC50, BT-20
# [13] = BT-549, read-out: cell panel IC50, BT-549, cell line BT-549
# [14] = BXPC-3, cell line BxPC-3, read-out: cell panel IC50, BxPC-3
# [15] = C-33-A, cell line C-33 A, read-out: cell panel IC50, C-33 A
# [16] = CAL-27, cell line CAL 27, read-out: cell panel IC50, CAL 27
# [17] = CCRF-CEM, cell line CCRF-CEM, read-out: cell panel IC50, CCRF-CEM
# [18] = DLD-1, cell line DLD-1, read-out: cell panel IC50, DLD-1
# [19] = FaDu, cell line FaDu, read-out: cell panel IC50, FaDu
# [20] = HCT-15, cell line HCT-15, read-out: cell panel IC50, HCT-15
# [21] = HCT-116, read-out: cell panel IC50, HCT-116, cell line HCT-116
# [22] = Hs-578T, cell line Hs 578T, read-out: cell panel IC50, Hs 578T
# [23] = Jurkat E6.1, cell line Jurkat E6.1, read-out: cell panel IC50, Jurkat E6.1
# [24] = K562, read-out: cell panel IC50, K-562, cell line K-562
# [25] = LS174T, read-out: cell panel IC50, LS 174T, cell line LS 174T
# [26] = LoVo, cell line LoVo, read-out: cell panel IC50, LoVo
# [27] = MG-63, cell line MG-63, read-out: cell panel IC50, MG-63
# [28] = MOLT-4, cell line MOLT-4, read-out: cell panel IC50, MOLT-4
# [29] = MeWo, cell line MeWo, read-out: cell panel IC50, MeWo
# [30] = NCI-H82, cell line NCI-H82, read-out: cell panel IC50, NCI-H82
# [31] = NCI-H460, cell line NCI-H460, read-out: cell panel IC50, NCI-H460
# [32] = OVCAR-3, cell line OVCAR-3, read-out: cell panel IC50, OVCAR-3
# [33] = RPMI-7951, cell line RPMI-7951, read-out: cell panel IC50, RPMI-7951
# [34] = SHP77, cell line SHP-77, read-out: cell panel IC50, SHP-77
# [35] = SK-N-AS, cell line SK-N-AS, read-out: cell panel IC50, SK-N-AS
# [36] = SW48, cell line SW48, read-out: cell panel IC50, SW48
# [37] = SW480, cell line SW480, read-out: cell panel IC50, SW480
# [38] = SW-620, cell line SW620, read-out: cell panel IC50, SW620
# [39] = U2OS, cell line U-2 OS, read-out: cell panel IC50, U-2 OS
# [40] = U-87 MG, 72 h, U-87 MG cell line, ATPlite, 72 hours, read-out: IC50 in cell proliferation assay (table S5 cellpanel data)
# [41] = cell line J82, read-out: cell panel IC50, J82
# [42] = cell line PA-1, read-out: cell panel IC50, PA-1
# [43] = cell line SJCRH30, read-out: cell panel IC50, SJCRH30
# [44] = cell line SR, read-out: cell panel IC50, SR
smiles,measurement,setting,value
CC(=O)O[C@@]12CO[C@@H]1C[C@H](O)[C@@]1(C)C(=O)[C@H](O)C3=C(C)[C@@H](OC(=O)[C@H](O)[C@@H](NC(=O)OC(C)(C)C)c4ccccc4)C[C@@](O)([C@@H](OC(=O)c4ccccc4)[C@H]21)C3(C)C [docetaxel],IC50,[1],10 nM
same,IC50,[2],17 nM
same,IC50,[3],3.25 nM
same,IC50,[4],3 nM
same,IC50,[5],13 nM
same,IC50,[6],2.14 nM
same,IC50,[7],5.52 nM
same,IC50,[8],3.5 nM
same,IC50,[9],21 nM
same,IC50,[10],0.902 nM
same,IC50,[11],2.22 nM
same,IC50,[12],9 nM
same,IC50,[13],2.85 nM
same,IC50,[14],3.35 nM
same,IC50,[15],2.85 nM
same,IC50,[16],1.64 nM
same,IC50,[17],6.45 nM
same,IC50,[18],23 nM
same,IC50,[19],1.18 nM
same,IC50,[20],58 nM
same,IC50,[21],2 nM
same,IC50,[22],2.13 nM
same,IC50,[23],2 nM
same,IC50,[24],2.68 nM
same,IC50,[25],2.22 nM
same,IC50,[26],8 nM
same,IC50,[27],1.08 nM
same,IC50,[28],1.74 nM
same,IC50,[29],2.63 nM
same,IC50,[30],1.37 nM
same,IC50,[31],5.57 nM
same,IC50,[32],4 nM
same,IC50,[33],1.9 nM
same,IC50,[34],138 nM
same,IC50,[35],3.37 nM
same,IC50,[36],3.39 nM
same,IC50,[37],3.34 nM
same,IC50,[38],2.25 nM
same,IC50,[39],7.41 nM
same,IC50,[40],11 nM
same,IC50,[41],15 nM
same,IC50,[42],0.943 nM
same,IC50,[43],2.45 nM
same,IC50,[44],2.17 nM
CNC(=O)c1ccccc1Sc1ccc2c(/C=C/c3ccccn3)n[nH]c2c1 [axitinib],IC50,"4-4 cell, read-out: cell panel IC50, PA-1",1290 nM
same,IC50,"A498, read-out: cell panel IC50, A-498",3210 nM
same,IC50,"A-375, read-out: cell panel IC50, A375",5650 nM
same,IC50,"HCT-116, read-out: cell panel IC50, HCT-116",2290 nM
same,IC50,"SHP77, read-out: cell panel IC50, SHP-77",5570 nM
COc1cc([C@@H]2c3cc4c(cc3[C@@H](O[C@@H]3O[C@@H]5CO[C@@H](C)O[C@H]5[C@H](O)[C@H]3O)[C@H]3COC(=O)[C@H]23)OCO4)cc(OC)c1O [etoposide],IC50,[1],815 nM
same,IC50,[2],3680 nM
same,IC50,[3],11100 nM
same,IC50,[4],653 nM
same,IC50,[5],1010 nM
same,IC50,[6],859 nM
same,IC50,[7],397 nM
same,IC50,[8],347 nM
same,IC50,[9],1170 nM
same,IC50,[10],3180 nM
same,IC50,[11],993 nM
same,IC50,[12],7380 nM
same,IC50,[13],1180 nM
same,IC50,[14],10700 nM
same,IC50,[15],376 nM
same,IC50,[16],525 nM
same,IC50,[17],106 nM
same,IC50,[18],5640 nM
same,IC50,[19],1350 nM
same,IC50,[20],1560 nM
same,IC50,[21],658 nM
same,IC50,[22],4000 nM
same,IC50,[23],240 nM
same,IC50,[24],1140 nM
same,IC50,[25],219 nM
same,IC50,[26],739 nM
same,IC50,[27],2100 nM
same,IC50,[28],57 nM
same,IC50,[29],5240 nM
same,IC50,[30],1010 nM
same,IC50,[31],331 nM
same,IC50,[32],22400 nM
same,IC50,[33],701 nM
same,IC50,[34],> 31600 nM
same,IC50,[35],1370 nM
same,IC50,[36],205 nM
same,IC50,[37],4650 nM
same,IC50,[38],4180 nM
same,IC50,[39],3330 nM
same,IC50,[40],29400 nM
same,IC50,[41],4940 nM
same,IC50,[42],83 nM
same,IC50,[43],1030 nM
same,IC50,[44],47 nM
